This test relates to palmitoylation of GAP43:GFP in MDCK cells. The test is described as follows: Localization of the palmitoylation reporter GAP43:GFP at the plasma membrane, by microscopy and HTM algorithm. Particulars: for effect on palmitoylation / PM localization of GAP43:GFP: MDCK cells transiently transfected with GAP43:GFP, incubation in 100 μM 2BP. Format: cell-based. An excerpt:
FIGS. 2A-2D provide characterization of the reporter of S-palmitoylation. […] Cells in FIGS. 2B, 2C and 2D are representative of many having the same morphology.
FIGS. 5A-5D illustrate the simple case of quantifying whether or not GAP43:GFP is on the PM or in the cytoplasm using the HTM algorithm. In this analysis, MDCK cells (the same images as presented in FIGS. 2A-2D), transiently transfected with GFP alone are presented in FIG. 5A; transiently transfected with GAP43:GFP are presented in FIG. 5B; and transiently transfected with GAP43:GFP in the presence of 100 μM 2BP are presented in FIG. 5C.
FIG. 6 presents a quantitative analysis of the time course of translocation of GAP43:GFP from the plasma membrane in response to 100 μM 2BP: residence half life of palmitoylation. MDCK cells stably expressing GAP43:GFP were exposed to 100 μM 2BP for 6 hours. During this time, the same field of view of cells was imaged repeatedly in two channels Hoechst/nucleus (see FIG. 6A) and GFP/PM (see FIG. 6B) on the EIDAQ100 (the three images: 6A, 6B and 6C are at time 0). The PM mask (green lines) defined by the program is shown in FIG. 6C; the nucleus is delimited by red lines. By determining the average fluorescence intensity of the area defined by the PM mask (see FIG. 6D), PM labeling was reduced by 80% from the maximum (or starting) density during the 6 hour period.
This algorithm is able to make a simple binary decision of whether GAP43:GFP is on the PM or in the cytoplasm (see FIG. 5) as well as fine incremental determinations (see FIG. 6) of the quantity of fluorescence on the PM, thereby extending the capability beyond what is necessary to score the primary screen for trapped genes. Two important questions are answered here. Data in FIGS. 5A-5D illustrate that the algorithm is sufficient to ensure success in a screen to find genes critical in the pathway for palmitoylation of the reporter in an ICR-2A reporter cell line.

Turning to `CCCCCCCCCCCCCCC(Br)C(=O)O` (stereo not drawn) [2BP, 2-bromopalmitate], the “effect on palmitoylation / PM localization of GAP43:GFP” value is reported as “localization to the PM has been inhibited”. For the same compound, the “reduction of PM labeling (average fluorescence intensity of the area defined by the PM mask) from the maximum (starting) density” value (MDCK cells stably expressing GAP43:GFP, 100 μM 2BP, 6 hour period, EIDAQ100 imaging) came to 80%. The “effect on palmitoylation / PM localization of GAP43:GFP” value (listed as 2-bromopalmitate) was “palmitoylation is inhibited”.

Source of the values: patent publication US20080206744A1, “Functional Genomics and Gene Trapping in Haploid or Hypodiploid Cells” (priority 2004, published 2008).
